Data: US8697096B2, “Tape preparation comprising etodolac in ionic liquid form” (priority 2007, dated 2014)

Legend:
[1] = Tissue concentration of etodolac by administration route (oral vs transdermal), leg muscle of rat; type: in vivo; conditions: 12 mg/kg etodolac suspended in CMC, FIG. 8
Method: In the case of oral administration, four male SD rats (5 weeks old) are used as a group and 12 mg/kg of etodolac suspended in CMC is forced to be taken in by using a probe. The dose is fixed around about 1.1˜1.5 mg/rat. After a lapse of a certain period of time since the forced feeding, an animal is killed by blood removal under anesthesia. Later the leg was amputated, divided into skin and other tissues and the drug concentrations in the muscle tissue and plasma were assayed.
The applied area of the sample was adjusted so that transdermally available amount of etodolac was about 0.7 mg/rat when applied for 24 hours. After a lapse of a certain period of time since the application of the sample, an animal is killed by blood removal under anesthesia. Later the leg was amputated, divided into skin and other tissues and the drug concentrations in the muscle tissue and plasma were assayed.

drug-concentration in the muscle tissue [1] | Compound | pKa (physchem)
 | CC(O)CN(CC(C)O)CC(C)O (stereo not drawn) [triisopropanolamine] | 8.03
not increased so much | CCc1cccc2c3c([nH]c12)C(CC)(CC(=O)O)OCC3 (stereo not drawn) [etodolac] | 4.65
